How the values were obtained:
[1] = tested on: cardiac repolarization (QTcF interval); experiment: TQT study, six-period crossover, placebo- and positive-controlled; format: in vivo, healthy volunteers
Protocol: Study Design. Given the known risk for tetrabenazine to increase the QT interval, a TQT study of deutetrabenazine, which included tetrabenazine as a treatment arm, was conducted in 48 healthy volunteers. This was a single-center, randomized, double-blind, placebo- and positive-controlled six-period crossover study to evaluate the effects of low-dose (12 mg) and high-dose (24 mg) deutetrabenazine on cardiac repolarization, based on placebo-corrected, time-matched changes from baseline in the QTcF interval. Assay sensitivity was established by using moxifloxacin 400 mg as the positive control.
The key outcome measure was to determine the effect of single doses of deutetrabenazine on the QTc interval.
In the table above, ΔΔQTcF is defined as the difference between the least squares mean change from baseline for the active drug and placebo. deutetrabenazine was compared with deutetrabenazine placebo (administered under fed conditions) and tetrabenazine was compared with tetrabenazine placebo (administered under fasted conditions). […] The upper limit of the 95% one-sided confidence interval is the upper limit of the 90% 2-sided confidence interval.

patients with HD = conditions: cited from earlier work
[2] = tested on: patients with hyperkinetic movement disorders; conditions: retrospective study of 98 patients; cited from earlier work
QTc interval = conditions: 50 mg; 90% two-sided CI: 5.0, 10.4 ms; cited from earlier work
[3] = 12-week placebo-controlled study

COc1c(N2C[C@@H]3CCCN[C@@H]3C2)c(F)cc2c(=O)c(C(=O)O)cn(C3CC3)c12 [Moxifloxacin, reference compound]
Maximum Placebo-Adjusted Change from Baseline in QTcF ([1]; 400 mg, positive control): 14.0 ms

COc1cc2c(cc1OC)C1CC(=O)C(CC(C)C)CN1CC2 (stereo not shown) [tetrabenazine, 1,3,4,6,7,11b-Hexahydro-9,10-dimethoxy-3-(2-methylpropyl)-2H-benzo[a]quinoline]
Maximum Placebo-Adjusted Change from Baseline in QTcF ([1]; 50 mg single dose, fasted): 7.6 ms | time point at which the maximal ΔΔQTcF was observed ([1]; in vivo): 3 h | TMC score of the UHDRS (patients with HD; [3]): demonstrated to improve the TMC score | TMS (patients with HD; [3]): failed to show statistically significant improvement in TMS | adverse events suggestive of parkinsonism (patients with HD; 12-week randomized controlled trial): 15% | patients in whom dose escalation was discontinued or dosage reduced due to adverse events (patients with HD; 28 of 54 patients randomized): 52% | Adverse reaction Akathisia (patients with HD; N = 54): 10 (19) n (%) | Adverse reaction Anxiety/anxiety aggravated (patients with HD; N = 54): 8 (15) n (%) | Adverse reaction Appetite decreased (patients with HD; N = 54): 2 (4) n (%) | Adverse reaction Balance difficulty (patients with HD; N = 54): 5 (9) n (%) | Adverse reaction Bronchitis (patients with HD; N = 54): 2 (4) n (%) | Adverse reaction Depression (patients with HD; N = 54): 10 (19) n (%) | Adverse reaction Dizziness (patients with HD; N = 54): 2 (4) n (%) | Adverse reaction Dysarthria (patients with HD; N = 54): 2 (4) n (%) | Adverse reaction Dysuria (patients with HD; N = 54): 2 (4) n (%) | Adverse reaction Ecchymosis (patients with HD; N = 54): 3 (6) n (%) | Adverse reaction Fall (patients with HD; N = 54): 8 (15) n (%) | Adverse reaction Fatigue (patients with HD; N = 54): 12 (22) n (%) | Adverse reaction Gait unsteady (patients with HD; N = 54): 2 (4) n (%) | Adverse reaction Headache (patients with HD; N = 54): 2 (4) n (%) | Adverse reaction Insomnia (patients with HD; N = 54): 12 (22) n (%) | Adverse reaction Irritability (patients with HD; N = 54): 5 (9) n (%) | Adverse reaction Laceration (head) (patients with HD; N = 54): 3 (6) n (%) | Adverse reaction Nausea (patients with HD; N = 54): 7 (13) n (%) | Adverse reaction Obsessive reaction (patients with HD; N = 54): 2 (4) n (%) | Adverse reaction Parkinsonism/bradykinesia (patients with HD; N = 54): 5 (9) n (%) | Adverse reaction Sedation/somnolence (patients with HD; N = 54): 17 (31) n (%) | Adverse reaction Shortness of breath (patients with HD; N = 54): 2 (4) n (%) | Adverse reaction Upper respiratory tract infection (patients with HD; N = 54): 6 (11) n (%) | Adverse reaction Vomiting (patients with HD; N = 54): 3 (6) n (%) | boxed warning: depression and suicidality in patients with HD (patients with HD; prescribing information): increases the risk of depression and suicidal thoughts and behavior (suicidality) | dysphagia observed in patients [2]: 19% | mean increase in QTc interval (QTc interval): approximately 8 ms

Reference: patent US12016858B2, “Methods for the treatment of abnormal involuntary movement disorders” (AUSPEX PHARMACEUTICALS, INC., priority 2015, dated 2024)
